From US12503436B2, “Compounds and compositions for treating conditions associated with STING activity” (NOVARTIS PHARMA AG, priority 2021, dated 2025)

The compounds below were run against STING (Homo sapiens, UniProt Q86WV6, G230A/H232R/R293Q/R71H) (assay: STING reporter assay in THP1-Dual KO-IFNAR2 cells (2′3′cGAMP stimulation, luciferase reporter)). Conditions: 15 μM 2′3′cGAMP stimulation, 24 h, read-out: Pharmaron, THP1_IFNAR2 STING 24 h Luci Normalized: GeoMean EC50.
Format: cell-based
How it was run: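 THP1-Dual KO-IFNAR2 cells (2×10E6 cells/mL) with compounds at 0.0017-100 μM final, stimulated with 15 μM final 2′3′cGAMP delivered by Lipofectamine 2000; 24 h at 37 °C. Luciferase in supernatant read with QUANTI-Luc Plus; EC50 derived from luminescence.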

Sequence of STING (Q86WV6 whole entry R71H/G230A/H232R/R293Q): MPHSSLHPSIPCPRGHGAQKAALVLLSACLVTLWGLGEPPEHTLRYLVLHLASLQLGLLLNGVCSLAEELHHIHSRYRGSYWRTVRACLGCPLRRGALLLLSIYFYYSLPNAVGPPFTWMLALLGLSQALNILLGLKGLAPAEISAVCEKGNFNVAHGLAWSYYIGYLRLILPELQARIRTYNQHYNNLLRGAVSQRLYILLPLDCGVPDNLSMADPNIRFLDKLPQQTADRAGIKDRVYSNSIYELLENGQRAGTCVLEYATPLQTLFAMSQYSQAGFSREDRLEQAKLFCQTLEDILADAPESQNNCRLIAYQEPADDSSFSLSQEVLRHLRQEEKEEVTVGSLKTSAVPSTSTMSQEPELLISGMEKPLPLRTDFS

| EC50 [nM] | SMILES |
| --- | --- |
| 1000 to 5000 | CC(=O)Nc1c[nH]c2ccc(OCC[C@@H]3C[C@@H]4CN(CC(F)F)C[C@@H]4C3)cc12 [Compound 313, N-(5-(2-((3aR,5r,6aS)-2-(2,2-difluoroethyl)octahydrocyclopenta[c]pyrrol-5-yl)ethoxy)-1H-indol-3-yl)acetamide] |
| 200 to 1000 | CC(C)(C)CC(=O)Nc1c[nH]c2ccc(OCc3ccc(C(F)(F)F)cc3)cc12 [Compound 314, 3,3-dimethyl-N-(5-((4-(trifluoromethyl)benzyl)oxy)-1H-indol-3-yl)butanamide] |
| 200 to 1000 | O=C(Nc1c[nH]c2ccc(OCc3ccc(C(F)(F)F)cc3)cc12)C1(C(F)(F)F)CC1 [Compound 315, 1-(trifluoromethyl)-N-(5-((4-(trifluoromethyl)benzyl)oxy)-1H-indol-3-yl)cyclopropane-1-carboxamide] |
| 200 to 1000 | CC(C)(C)C(=O)Nc1c[nH]c2ccc(OCc3ccc(C(F)(F)F)cc3)cc12 [Compound 316, N-(5-((4-(trifluoromethyl)benzyl)oxy)-1H-indol-3-yl)pivalamide] |
| 200 to 1000 | O=C(Nc1c[nH]c2ccc(OCc3ccc(C(F)(F)F)cc3)cc12)C1CC1 [Compound 317, N-(5-((4-(trifluoromethyl)benzyl)oxy)-1H-indol-3-yl)cyclopropanecarboxamide] |
| 200 to 1000 | O=C(Nc1c[nH]c2ccc(OCc3ccc(C(F)(F)F)cc3)cc12)C1CC1(F)Cl (centres unmarked) [Compound 318, 2-chloro-2-fluoro-N-(5-((4-(trifluoromethyl)benzyl)oxy)-1H-indol-3-yl)cyclopropane-1-carboxamide] |
| 200 to 1000 | COCC1(C(=O)Nc2c[nH]c3ccc(OCc4ccc(C(F)(F)F)cc4)cc23)CC1 [Compound 319, 1-(methoxymethyl)-N-(5-((4-(trifluoromethyl)benzyl)oxy)-1H-indol-3-yl)cyclopropane-1-carboxamide] |
| 200 to 1000 | C[C@H]1C[C@H](C(=O)Nc2c[nH]c3ccc(OCc4ccc(C(F)(F)F)cc4)cc23)C1 [Compound 320, trans-3-methyl-N-(5-((4-(trifluoromethyl)benzyl)oxy)-1H-indol-3-yl)cyclobutane-1-carboxamide] |
| 200 to 1000 | C[C@H]1C[C@@H](C(=O)Nc2c[nH]c3ccc(OCc4ccc(C(F)(F)F)cc4)cc23)C1 [Compound 321, cis-3-methyl-N-(5-((4-(trifluoromethyl)benzyl)oxy)-1H-indol-3-yl)cyclobutane-1-carboxamide] |
| 200 to 1000 | O=C(Nc1c[nH]c2ccc(OCc3ccc(C(F)(F)F)cc3)cc12)C1CC(Cl)C1 (centres unmarked) [Compound 322, 3-chloro-N-(5-((4-(trifluoromethyl)benzyl)oxy)-1H-indol-3-yl)cyclobutane-1-carboxamide] |
| 200 to 1000 | CC1(F)CC(C(=O)Nc2c[nH]c3ccc(OCc4ccc(C(F)(F)F)cc4)cc23)C1 (centres unmarked) [Compound 323, 3-fluoro-3-methyl-N-(5-((4-(trifluoromethyl)benzyl)oxy)-1H-indol-3-yl)cyclobutane-1-carboxamide] |
| 200 to 1000 | O=C(Nc1c[nH]c2ccc(OCc3ccc(C(F)(F)F)cc3)cc12)[C@H]1C[C@@H](O)C1 [Compound 324, cis-3-hydroxy-N-(5-((4-(trifluoromethyl)benzyl)oxy)-1H-indol-3-yl)cyclobutane-1-carboxamide] |
| 200 to 1000 | CC1(C(=O)Nc2c[nH]c3ccc(OCc4ccc(C(F)(F)F)cc4)cc23)CCCO1 (centres unmarked) [Compound 325, 2-methyl-N-(5-((4-(trifluoromethyl)benzyl)oxy)-1H-indol-3-yl)tetrahydrofuran-2-carboxamide] |
| 200 to 1000 | O=C(Nc1c[nH]c2ccc(OCc3ccc(C(F)(F)F)cc3)cc12)C1CC(F)C1 (centres unmarked) [Compound 326, 3-fluoro-N-(5-((4-(trifluoromethyl)benzyl)oxy)-1H-indol-3-yl)cyclobutane-1-carboxamide] |
| 200 to 1000 | CC1(C)CC(C(=O)Nc2c[nH]c3ccc(OCc4ccc(C(F)(F)F)cc4)cc23)C1 [Compound 327, 3,3-dimethyl-N-(5-((4-(trifluoromethyl)benzyl)oxy)-1H-indol-3-yl)cyclobutane-1-carboxamide] |
| 200 to 1000 | CC1(C(=O)Nc2c[nH]c3ccc(OCc4ccc(C(F)(F)F)cc4)cc23)CCOCC1 [Compound 328, 4-methyl-N-(5-((4-(trifluoromethyl)benzyl)oxy)-1H-indol-3-yl)tetrahydro-2H-pyran-4-carboxamide] |
| 200 to 1000 | O=C(Nc1c[nH]c2ccc(OCc3ccc(C(F)(F)F)cc3)cc12)C1CC(O)C1 (centres unmarked) [Compound 329, 3-hydroxy-N-(5-((4-(trifluoromethyl)benzyl)oxy)-1H-indol-3-yl)cyclobutane-1-carboxamide] |
| 200 to 1000 | O=C(Nc1c[nH]c2ccc(OCc3ccc(C(F)(F)F)cc3)cc12)C1CC1(F)F (centres unmarked) [Compound 330, 2,2-difluoro-N-(5-((4-(trifluoromethyl)benzyl)oxy)-1H-indol-3-yl)cyclopropane-1-carboxamide] |
| 1000 to 5000 | O=C(Nc1c[nH]c2ccc(OCc3ccc(C(F)(F)F)cc3)cc12)C1(F)CC1 [Compound 331, 1-fluoro-N-(5-((4-(trifluoromethyl)benzyl)oxy)-1H-indol-3-yl)cyclopropane-1-carboxamide] |
| 1000 to 5000 | N#C[C@H]1C[C@@H]1C(=O)Nc1c[nH]c2ccc(OCC[C@@H]3C[C@@H]4CN(CC(F)(F)F)C[C@@H]4C3)cc12 [Compound 340, (1S,2S)-2-cyano-N-(5-(2-((3aR,5r,6aS)-2-(2,2,2-trifluoroethyl)octahydrocyclopenta[c]pyrrol-5-yl)ethoxy)-1H-indol-3-yl)cyclopropane-1-carboxamide] |

| SMILES | EC50 [nM] |
| --- | --- |
| COCC1(C(=O)Nc2c[nH]c3ccc(O[C@H]4C[C@@H](c5ccc(C(F)(F)F)cc5)C4)cc23)CC1 [Compound 333, 1-(methoxymethyl)-N-(5-(cis-3-(4-(trifluoromethyl)phenyl)cyclobutoxy)-1H-indol-3-yl)cyclopropane-1-carboxamide] | 1000 to 5000 |
| C[C@H]1C[C@H](C(=O)Nc2c[nH]c3ccc(O[C@H]4C[C@@H](c5ccc(C(F)(F)F)cc5)C4)cc23)C1 [Compound 334, trans-3-methyl-N-(5-(cis-3-(4-(trifluoromethyl)phenyl)cyclobutoxy)-1H-indol-3-yl)cyclobutane-1-carboxamide] | 40 to 200 |
| C[C@H]1C[C@@H](C(=O)Nc2c[nH]c3ccc(O[C@H]4C[C@@H](c5ccc(C(F)(F)F)cc5)C4)cc23)C1 [Compound 335, cis-3-methyl-N-(5-(cis-3-(4-(trifluoromethyl)phenyl)cyclobutoxy)-1H-indol-3-yl)cyclobutane-1-carboxamide] | 200 to 1000 |
| O=C(Nc1c[nH]c2ccc(O[C@H]3C[C@@H](c4ccc(C(F)(F)F)cc4)C3)cc12)C1CC(Cl)C1 (stereo partly drawn) [Compound 336, 3-chloro-N-(5-(cis-3-(4-(trifluoromethyl)phenyl)cyclobutoxy)-1H-indol-3-yl)cyclobutane-1-carboxamide] | 200 to 1000 |
| O=C(Nc1c[nH]c2ccc(O[C@H]3C[C@@H](c4ccc(C(F)(F)F)cc4)C3)cc12)[C@H]1C[C@@H](O)C1 [Compound 337, cis-3-hydroxy-N-(5-(cis-3-(4-(trifluoromethyl)phenyl)cyclobutoxy)-1H-indol-3-yl)cyclobutane-1-carboxamide] | 200 to 1000 |
| O=C(Nc1c[nH]c2ccc(O[C@H]3C[C@@H](c4ccc(C(F)(F)F)cc4)C3)cc12)C1CC(O)C1 (stereo partly drawn) [Compound 338, 3-hydroxy-N-(5-(cis-3-(4-(trifluoromethyl)phenyl)cyclobutoxy)-1H-indol-3-yl)cyclobutane-1-carboxamide] | 200 to 1000 |
